Entries after “also recorded” stand apart in the source; their conditions may differ. Read-outs that look alike come from different tables or passages of the source.
Key:
Assay type in all cases: cell-based
[1] = Cytotoxicity (resazurin) growth inhibition assay; settings: human
Procedure: The cytotoxicity of six compounds selected from in-silico screening was analyzed through a resazurin assay. Aliquots of 10^4 CYP3A4-overexpressing HepG2 cells were seeded per well into 96-well plates. Cells were treated with different concentrations of the selected compounds ranging from 0.003 to 100 µM in a total volume of 200 µL for 72 h. Then, 20 µL/well of resazurin 0.01% w/v (Sigma Aldrich, Taufkirchen, Germany) was added. The fluorescence intensity was measured with the Infinite M200 Pro-plate reader (Tecan, Crailsheim, Germany). Dose–response curves were generated from three independent experiments for each compound and 50% inhibition concentrations (IC50) were calculated. The analysis was represented using Prism 6 GraphPad Software (La Jolla, CA, USA).

[2] = tested on: CYP3A4-overexpressing HepG2 cells; assay: Flow cytometric cell cycle analysis; settings: IC50 concentration, 24 h; for S-phase cells population: control 12.47 ± 0.83%; for cells in G2/M phase: control 18.70 ± 0.69%
Procedure: After 24 h of incubation, cells were fixed with ethanol and stored at −20 °C overnight. […] The measurement was performed using a BD LSRFortessa™ Cell Analyzer (Becton–Dickinson, Heidelberg, Germany). The results were analyzed using FlowJo software (Celeza, Olten, Switzerland).

[3] = tested on: CYP3A4-overexpressing HepG2 cells; assay: RNA-sequencing and gene set enrichment analysis; settings: IC50 concentration, 24 h; for number of 'DNA-templated DNA replication' genes influenced by only one compound: Venn diagram; for activated pathway (gene set enrichment, GO Biological Process) / number of genes affected in 'nuclear chromosome segregation' pathway / number of genes involved in 'inflammatory response' pathway / number of genes targeted in 'DNA-templated DNA replication' pathway / suppressed pathway (gene set enrichment, GO Biological Process): vs DMSO control
Procedure: Aliquots of 5 × 10^5 CYP3A4-overexpressing HepG2 cells were seeded into six-well-plates 24 h before treatment. Cells were treated with previously calculated IC50 concentrations of the compounds of interest. Control (ctrl) cells were treated with 0.2% DMSO. After 24 h incubation, the cells were harvested. RNA extraction was performed with the […] RNA Mini Kit (Invitek Molecular GmbH, Berlin, Germany), according to the manufacturer's instruction. Briefly, the cell pellet was lysed with 350 μL Lysis Solution and treated with β-mercaptoethanol. […] After several washing steps, RNA was eluted with 60 μL of Elution Buffer R and the concentration and purity measured with NanoDrop. Next-generation sequencing was conducted by […] GmbH, Mainz, Germany. The quality of the extracted RNA was verified by the company with a 2100 Bioanalyzer system (Agilent Technologies, CA, USA). After mRNA isolation and library preparation using the NEBNext^© UltraTM II Directional RNA Library Prep Kit (New England Biolabs, MA, USA), RNA sequencing of around 25 mio PE reads (2 × 12.5 M reads, 2 × 150 nt) was performed with the Illumina NextSeq 2000TM system. Each treatment and control group included two replicates. Quality control on the sequencing data was performed with the FastQC tool (0.12.0, https://www.bioinformatics.babraham.ac.uk/projects/fastqc/). Transcript abundance estimates were computed with Salmon (version 1.5.0) (Patro et al. [2017]) with a transcriptome index generated from the GENCODE (version 38), and subsequently summarized to gene level with the […] package (version 1.16.0) (Love et al. [2020]). The exploration, modelling, and interpretation of the expression data followed previously described protocols (Ludt et al. [2022]). Exploratory data analysis was executed with the pcaExplorer package (version 2.24.0) (Marini and Binder [2019]). Differential expression analysis was performed with DESeq2 package (version 1.38.3) (Love et al. [2014]), setting the false discovery rate (FDR) cutoff to 0.05. Accurate estimation of the effect sizes (described as log2 fold change) was finalized using the […] shrinkage estimator (version 1.20.0) (Zitovsky and Love [2020]). Subsequent analyses included Gene Ontology pathway enrichment by topGO (version 2.50.0) (Alexa et al. [2006])-using all expressed genes as background dataset and the ideal package (version 1.22.0) (Ludt et al. [2022])-and by clusterProfiler (version 4.6.0) (Wu et al. [2021]) with default settings using the log fold change as input. […] [2021]). Gene expression profiles were plotted as heatmaps (color-coded standardized Z scores for the expression values, after variance stabilizing transformation) to simplify comparison across samples.

[4] = 72 h, resazurin, mean ± SD of three independent experiments, read-out: IC50
[5] = CYP3A4-overexpressing HepG2 cells, 72 h, resazurin, mean ± SD of three independent experiments, read-out: IC50

SMILES | IC50 at 72 h [1, 4] [µM] | IC50 at 72 h [1, 5] [µM] | S-phase cells population [2] [%] | cells in G2/M phase [2] [%] | IC50 at 72 h [1] [µM] | number of 'DNA-templated DNA replication' genes influenced by only one compound [3] [genes] | activated pathway (gene set enrichment, GO Biological Process) [3] | number of genes affected in 'nuclear chromosome segregation' pathway [3] [genes] | number of genes involved in 'inflammatory response' pathway [3] [genes] | number of genes targeted in 'DNA-templated DNA replication' pathway [3] [genes] | suppressed pathway (gene set enrichment, GO Biological Process) [3]
O=C(OC1CCCCC1)c1ccccc1C(=O)OC1CCCCC1 [compound 1, dicyclohexyl phthalate] | 72.7 |  |  |  |  |  |  |  |  |  | 
CC(C)COC(=O)c1ccccc1C(=O)OCC(C)C [compound 2, diisobutyl phthalate] | > 100 |  |  |  |  |  |  |  |  |  | 
CC(C)(C)CC(C)(C)c1ccc(O)c(-n2nc3ccccc3n2)c1 [compound 3, octrizole] |  | 63.8 ± 2.21 |  |  |  |  |  |  |  |  | 
Cc1cc(Cc2cc(C)cc(C(C)(C)C)c2O)c(O)c(C(C)(C)C)c1 [compound 4, 2,2′-methylene bis(6-tert-butyl-4-methylphenol)] |  |  | 6.26 ± 1.31 | 26.70 ± 8.40 | 17.4 | 10 | icosanoid metabolic process; also recorded: anion transport; also recorded: response to metal ions; also recorded: regulation of growth; also recorded: response to cytokines; also recorded: inflammatory response | 103 | 76 | 78 | regulation of chromosome segregation; also recorded: regulation of mitotic sister chromatid separation; also recorded: nuclear chromosome segregation; also recorded: chromosome organization; also recorded: metaphase/anaphase transition of mitotic cell cycle; also recorded: response to vitamin
CC(c1cc(C(C)(C)C)cc(C(C)(C)C)c1O)c1cc(C(C)(C)C)cc(C(C)(C)C)c1O [compound 5, 1,1-bis(3,5-di-tert-butyl-2-hydroxyphenyl)ethane] |  | 20 ± 1.68 | 10.88 ± 3.84 | 25.13 ± 2.25 |  | 8 | autophagy; also recorded: process utilizing autophagic mechanism; also recorded: response to endoplasmic reticulum stress; also recorded: cytokine production; also recorded: Golgi vesicle transport; also recorded: response to growth factors; also recorded: cellular response to growth factor stimulation |  |  | 68 | cholesterol metabolic process; also recorded: cholesterol biosynthetic process; also recorded: secondary alcohol biosynthetic process; also recorded: sterol metabolic process; also recorded: alcohol metabolic process; also recorded: small molecule metabolic process; also recorded: organic hydroxy compound metabolic process
Cc1cc(Cc2cc(C)cc(C3CCCCC3)c2O)c(O)c(C2CCCCC2)c1 [compound 6, 2,2′-methylene bis(6-cyclohexyl-4-methylphenol)] |  | 18 ± 1.21 | 7.06 ± 5.94 | 25.77 ± 0.95 |  | 5 | response to nutrients levels; also recorded: regulation of extent of growth; also recorded: response to wounding; also recorded: inflammatory response; also recorded: cytokine production | 83 | 90 | 72 | regulation of chromosome segregation; also recorded: regulation of mitotic sister chromatid separation; also recorded: nuclear chromosome segregation; also recorded: chromosome organization

Reference: PMC10794370, “Impact of plastic-related compounds on the gene expression signature of HepG2 cells transfected with CYP3A4” (Archives of Toxicology, 2023)
